Experimental data as given in patent US20170081338A1, “SUBSTITUTED HETEROARYL COMPOUNDS AND METHODS OF USE” (Sunshine Lake Pharma Co., Ltd., priority 2015, published 2017).

Legend:
Aurora-A (h) = molecular target: T1, Aurora-A (h) (Homo sapiens, UniProt O14965); experiment: Aurora-A (h) kinase assay; assay type: biochemical
T1 construct: purchased Millipore UK Ltd (contract assay service)
T1 sequence (O14965 1-403): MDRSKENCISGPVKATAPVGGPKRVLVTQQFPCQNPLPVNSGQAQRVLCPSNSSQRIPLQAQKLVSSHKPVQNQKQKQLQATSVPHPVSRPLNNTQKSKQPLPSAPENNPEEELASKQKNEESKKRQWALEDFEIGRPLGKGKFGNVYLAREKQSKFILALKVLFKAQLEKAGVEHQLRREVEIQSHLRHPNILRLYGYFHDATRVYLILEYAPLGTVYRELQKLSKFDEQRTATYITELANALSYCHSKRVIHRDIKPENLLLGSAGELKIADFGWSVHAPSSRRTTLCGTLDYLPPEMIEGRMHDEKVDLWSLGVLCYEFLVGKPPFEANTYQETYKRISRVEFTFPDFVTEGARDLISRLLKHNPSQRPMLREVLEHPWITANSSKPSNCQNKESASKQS
Method: The above assay procedure can be used to determine the IC50 for inhibition and/or the inhibition constant, Ki. The IC50 is defined as the concentration of compound required to reduce the enzyme activity by 50% under the condition of the assay. The IC50 value is estimated by preparing a 10 point curve using a 1/2 log dilution series (for example, a typical curve may be prepared using the following compound concentrations: 3 μM, 1 μM, 0.3 μM, 0.1 μM, 0.03 μM, 0.01 μM, 0.003 μM, 0.001 μM, 0.0003 μM and 0 μM).
Aurora-A (h) is incubated with 8 mM MOPS pH 7.0, 0.2 mM EDTA, 200 μM LRRASLG (Kemptide), 10 mM MgAcetate and [γ-^33P-ATP] (specific activity approx. 500 cpm/pmol, concentration as required). The reaction is initiated by the addition of the MgATP mix. After incubation for 40 minutes at room temperature, the reaction is stopped by the addition of 3% phosphoric acid solution. 10 μL of the reaction is then spotted onto a P30 filtermat and washed three times for 5 minutes in 75 mM phosphoric acid and once in methanol prior to drying and scintillation counting.
The kinase assays described herein were performed at Millipore UK Ltd, Dundee Technology Park, Dundee DD2 1SW, UK.

[1] = Pharmacokinetics after intravenous and oral administration in rats; assay type: in vivo; settings: for Clearance (CL) after iv dosing / AUC(0-t) / half-life / Vd: dose 1 mg/kg, iv dosing; for F: oral bioavailability; for AUC(0-t) / half-life / Vd: rat, plasma; for Vd: read-out: Vss
Method: The LC/MS/MS system used in the analysis consists of an Agilent 1200 Series vacuum degasser, binary pump, well-plate autosampler, thermostatted column compartment, the Agilent G6430 Triple Quadrupole Mass Spectrometer with an electrosprayionization (ESI) source. Quantitative analysis was carried out using MRM mode. The parameters for MRM transitions are in the Table A.
An Agilent XDB-C18, 2.1×30 mm, 3.5 μM column was used for the analysis. 5 μL of the samples were injected. Analysis condition: The mobile phase was 0.1% formic acid in water (A) and 0.1% formic acid in methanol (B). The flow rate was 0.4 mL/min. And the gradient of Mobile phase was in the Table B.
Alternatively, an Agilent 6330 series LC/MS/MS spectrometer equipped with G1312A binary pumps, a G1367A autosampler and a G1314C UV detector were used in the analysis. An ESI source was used on the LC/MS/MS spectrometer. The analysis was done in positive ion mode as appropriate and the MRM transition for each analyte was optimized using standard solution. A Capcell MP-C18 100×4.6 mm I.D., […] column (Phenomenex, Torrance, Calif., USA) was used during the analysis. The mobile phase was 5 mM ammonia acetate, 0.1% MeOH in water (A): 5 mM ammonia acetate, 0.1% MeOH in acetonitrile (B) (70/30, v/v). The flow rate was 0.6 mL/min. Column was maintained at ambient temperature. 20 μL of the samples were injected.
The compounds disclosed herein are assessed in pharmacokinetic studies in mice, rats, dogs or monkeys. The compounds are administered as a water solution, 2% HPMC+1% TWEEN®80 in water solution, 5% DMSO+5% solutol in saline, 4% MC suspension or capsule. For the intravenous administration, the animals are generally given at 0.5, 1 or 2 mg/kg dose. For the oral (p.o.) dosing, mice and rats are generally given 0.5, 1, 5 or 10 mg/kg dose, and dogs and monkeys are generally given 10 mg/kg dose. The blood samples (0.3 mL) are drawn at 0.25, 0.5, 1.0, 2.0, 3.0, 4.0, 6.0, 8.0, 12 and 24 h time points or 0.083, 0.25, 0.5, 1.0, 2.0, 4.0, 6.0, 8.0 and 24 h time points and centrifuged at 3,000 or 4000 rpm for 2 to 10 min. The plasma solutions are collected, and stored at −20° C. or −70° C. until analyzed by LC/MS/MS as described above.

[2] = Compound stability in rat liver microsomes; assay type: in vitro ADME; settings: pH 7.4; for half-life at 5 μM: rat liver microsomes 0.5 mg protein/mL, compound 5 μM, NADPH, 37° C., read-out: Rat T1/2; for CLint scaled at 5 μM: rat liver microsomes, in vivo CLint extrapolated
Method: (§1) Human or rat liver microsomes incubations were conducted in duplicate in polypropylene tubes. The typical incubation mixtures consisted of human or rat liver microsomes (0.5 mg protein/mL), compounds of interest (5 μM) and NADPH (1.0 mM) in a total volume of 200 μL potassium phosphate buffer (PBS, 100 mM, pH 7.4). Compounds were dissolved in DMSO and diluted with PBS such that the final concentration of DMSO was 0.05%. The enzymatic reactions were commenced with the addition of protein after a 3-min preincubation and incubated in a water bath open to the air at 37° C. Reactions were terminated at various time points (0, 5, 10, 15, 30, 60 min) by adding equal volume of ice-cold acetonitrile. The samples were stored at −80° C. until LC/MS/MS assays.
(§2) The concentrations of compounds in the incubation mixtures of human or rat liver microsomes were determined by a LC/MS/MS method. The ranges of the linearity in the concentration range were determined for each tested compounds.
(§3) A parallel incubation was performed using denatured microsomes as the negative control, and reactions were terminated at various time points (0, 15, 60 min) after incubation at 37° C.
(§4) Dextromethorphan (70 μM) was selected as the positive control, and reactions were terminated at various time points (0, 5, 10, 15, 30, 60 min) after incubation at 37° C. Both positive and negative control samples were included in each assay to ensure the integrity of the microsomal incubation system.
(§5) The concentrations of compounds in human or rat liver microsome incubations were plotted as a percentage of the relevant zero time point control for each reaction. The in vivo CLint were extrapolated (ref.: Naritomi, Y.; Terashita, S.; Kimura, S.; Suzuki, A.; Kagayama, A.; and Sugiyama, Y.; Prediction of human hepatic clearance from in vivo animal experiments and in vitro metabolic studies with liver microsomes from animals and humans. Drug Metab. Dispos., 2001, 29: 1316-1324).

[3] = Compound stability in human liver microsomes; assay type: in vitro ADME; settings: pH 7.4; for half-life at 5 μM: human liver microsomes 0.5 mg protein/mL, compound 5 μM, NADPH, 37° C., read-out: Human T1/2; for CLint scaled at 5 μM: human liver microsomes, in vivo CLint extrapolated
Method: as §1, §2, §3, §4, §5

| IC50 (Aurora-A (h)) [nM] | Clearance (CL) after iv dosing [1] [mL/min/kg] | F [1] [%] | AUC(0-t) [1] [ng·h/mL] | half-life [1] [min] | Vd [1] [L/kg] | half-life at 5 μM [2] [min] | CLint scaled at 5 μM [2] [mL/min/kg] | half-life at 5 μM [3] [min] | CLint scaled at 5 μM [3] [mL/min/kg] | SMILES |
| --- | --- | --- | --- | --- | --- | --- | --- | --- | --- | --- |
| 1180 |  |  |  |  |  |  |  |  |  | Cn1cc(Nc2ncc(Cl)c(N[C@H]3COC4C3OC[C@H]4NS(=O)(=O)CC(C)(C)C)n2)cn1 (stereo partly drawn) [Ex. 7, N-((3R,6S)-6-((5-chloro-2-((1-methyl-1H-pyrazol-4-yl)amino)pyrimidin-4-yl)amino)hexahydrofuro[3,2-b]furan-3-yl)-2,2-dimethylpropane-1-sulfonamide] |
| 575 |  |  |  |  |  |  |  |  |  | CC(C)CS(=O)(=O)N[C@H]1COC2C1OC[C@@H]2Nc1nc(Nc2cnn(C)c2)ncc1Cl (stereo partly drawn) [Ex. 28, N-((3S,6S)-6-((5-chloro-2-((1-methyl-1H-pyrazol-4-yl)amino)pyrimidin-4-yl)amino)hexahydrofuro[3,2-b]furan-3-yl)-2-methylpropane-1-sulfonamide] |
|  | 17 | 106.6 | 982 | 32.4 | 0.69 | 47.7 | 52.1 | 65.6 | 26.5 | Cn1cc(Nc2ncc(Cl)c(N[C@@H]3COC4C3OC[C@@H]4NS(=O)(=O)CC(C)(F)F)n2)cn1 (stereo partly drawn) [Ex. 38, N-((3S,6R)-6-((5-chloro-2-((1-methyl-1H-pyrazol-4-yl)amino)pyrimidin-4-yl)amino)hexahydrofuro[3,2-b]furan-3-yl)-2,2-difluoropropane-1-sulfonamide] |
|  | 57.3 | 37.0 | 290 | 49.2 | 1.64 | 78.7 | 31.5 | 102 | 17 | Cn1cc(Nc2ncc(Cl)c(N[C@@H]3COC4C3OC[C@@H]4NS(=O)(=O)CC(C)(C)O)n2)cn1 (stereo partly drawn) [Ex. 41, N-((3S,6R)-6-((5-chloro-2-((1-methyl-1H-pyrazol-4-yl)amino)pyrimidin-4-yl)amino)hexahydrofuro[3,2-b]furan-3-yl)-2-hydroxy-2-methylpropane-1-sulfonamide] |

More lines, now with the values behind:

| SMILES | IC50 (Aurora-A (h)) [nM] | Clearance (CL) after iv dosing [1] [mL/min/kg] | F [1] [%] | AUC(0-t) [1] [ng·h/mL] | half-life [1] [min] | Vd [1] [L/kg] | half-life at 5 μM [2] [min] | CLint scaled at 5 μM [2] [mL/min/kg] | half-life at 5 μM [3] [min] | CLint scaled at 5 μM [3] [mL/min/kg] |
| --- | --- | --- | --- | --- | --- | --- | --- | --- | --- | --- |
| Cn1cc(Nc2ncc(Cl)c(N[C@@H]3COC4C3OC[C@@H]4NS(=O)(=O)Cc3ccccc3)n2)cn1 (stereo partly drawn) [Ex. 19, N-((3S,6R)-6-((5-chloro-2-((1-methyl-1H-pyrazol-4-yl)amino)pyrimidin-4-yl)amino)hexahydrofuro[3,2-b]furan-3-yl)-1-phenylmethanesulfonamide] | 10 | 44.8 | 28.2 | 374 | 52.8 | 2.37 |  |  |  |  |
| Cn1cc(Nc2ncc(Cl)c(N[C@@H]3COC4C3OC[C@@H]4NS(=O)(=O)NC3CCOC3)n2)cn1 (stereo partly drawn) [Ex. 29, 5-chloro-N-(1-methyl-1H-pyrazol-4-yl)-4-(((3R,6S)-6-((N-(tetrahydrofuran-3-yl)sulfamoyl)amino)hexahydrofuro[3,2-b]furan-3-yl)amino)pyrimidin-2-amine] | 16 |  |  |  |  |  |  |  |  |  |
| CC(C)CS(=O)(=O)N[C@@H]1COC2C1OC[C@H]2Nc1nc(Nc2cnn(C)c2)ncc1Cl (stereo partly drawn) [Ex. 32, N-((3R,6R)-6-((5-chloro-2-((1-methyl-1H-pyrazol-4-yl)amino)pyrimidin-4-yl)amino)hexahydrofuro[3,2-b]furan-3-yl)-2-methylpropane-1-sulfonamide] | 478 |  |  |  |  |  |  |  |  |  |
| Cn1cc(Nc2ncc(Cl)c(N[C@@H]3COC4C3OC[C@@H]4NS(=O)(=O)CC(F)F)n2)cn1 (stereo partly drawn) [Ex. 36, N-((3S,6R)-6-((5-chloro-2-((1-methyl-1H-pyrazol-4-yl)amino)pyrimidin-4-yl)amino)hexahydrofuro[3,2-b]furan-3-yl)-2,2-difluoroethanesulfonamide] | 51 |  |  |  |  |  |  |  |  |  |
| CC(CS(=O)(=O)N[C@H]1COC2C1OC[C@H]2Nc1nc(Nc2cnn(C)c2)ncc1Cl)C(F)(F)F (stereo partly drawn) [Ex. 40, N-((3S,6R)-6-((5-chloro-2-((1-methyl-1H-pyrazol-4-yl)amino)pyrimidin-4-yl)amino)hexahydrofuro[3,2-b]furan-3-yl)-3,33-trifluoro-2-methylpropane-1-sulfonamide] |  | 30.3 | 77.3 | 533 | 31.2 | 1.22 | 19.7 | 126 | 25.2 | 69 |
| CC(CS(=O)(=O)N[C@H]1COC2C1OC[C@H]2Nc1nc(Nc2cnn(C)c2)ncc1Cl)C(F)F (stereo partly drawn) [Ex. 42, N-((3S,6R)-6-((5-chloro-2-((1-methyl-1H-pyrazol-4-yl)amino)pyrimidin-4-yl)amino)hexahydrofuro[3,2-b]furan-3-yl)-3,3-difluoro-2-methylpropane-1-sulfonamide] |  | 32.5 | 33.1 | 517 | 46.2 | 1.37 | 29.6 | 83.9 | 29.3 | 59.3 |
| CC(C)=CS(=O)(=O)N[C@H]1COC2C1OC[C@H]2Nc1nc(Nc2cnn(C)c2)ncc1Cl (stereo partly drawn) [Ex. 43, N-((3S,6R)-6-((5-chloro-2-((1-methyl-1H-pyrazol-4-yl)amino)pyrimidin-4-yl)amino)hexahydrofuro[3,2-b]furan-3-yl)-2-methylprop-1-ene-1-sulfonamide] |  | 35 | 57.1 | 479 | 47.4 | 1.75 | 25.7 | 96.5 | 22.9 | 76 |
